Data taken from patent US20250002695A1, “COMPOSITIONS COMPRISING CATIONIC ALPHA-1,6-GLUCAN DERIVATIVE AND ALPHA-1,3-GLUCAN” (Nutrition & Biosciences USA 4, Inc., priority 2021, published 2025).
≈ marks a conversion by molar mass, not a printed value. Read-outs that look alike come from different tables or passages of the source.

What was measured:
Assay in all cases: Minimum Inhibitory Concentration (MIC) test
Type in all cases: cell-based
[1] = system: Pseudomonas aeruginosa (ATCC 9027); settings: read-out: Minimum Inhibitory Concentration
Method: (§1) Antimicrobial activity assessment of alpha-1,6-glucan ether compounds herein and other compounds were carried out using a standard MIC protocol. Each test compound was evaluated in two sets, one at 50-5000 ppm (high MIC actives) and the other at 3.125-100 ppm (low MIC actives). All active samples, with the exception of chitosan, were dissolved in DI water at a concentration of 1% w/v for the […] set; chitosan was instead dissolved in water acidified to pH 3.5 with hydrochloric acid. Each test compound was then serially diluted to concentrations of 0.4%, 0.2%, 0.1%, 0.04%, 0.02% and 0.01% (w/v). For the 3.125-100 ppm set, all test compounds were prepared similarly at a concentration 0.1% w/v, and then serially diluted to concentrations of 0.05%, 0.025%, 0.0125%, 0.00625% and 0.003125% (w/v). Bacteria inocula were prepared by diluting overnight cultures 1:20 in trypticase soy broth media (TSB). Yeast and mold were prepared by diluting overnight culture or monthly stock (1×10^8 cells per mL) 1:20 in potato dextrose broth media (PDB). 96-well plates were used in this test. First, 180 μL of plating media was added to each well. Next, each well received 20 μL water (control) or test compound at a specified concentration according to concentration range to be tested. Each sample was tested in triplicate. Lastly, each well received 20 μL of bacteria or fungi inoculum. Bacterial plates were incubated at 30° C. for 24 hours. Yeast and mold plates were incubated at 25° C.; yeast plates were incubated for 24 hours and mold plates were incubated for 7 days.

[2] = system: Enterobacter gergoviae (ATCC 33028); settings: Pluralibacter gergoviae, read-out: Minimum Inhibitory Concentration
Method: as §1

[3] = system: Aspergillus brasiliensis (ATCC 16404); settings: ATCC16404, 168 h, read-out: Minimum Inhibitory Concentration
Method: as §1

[4] = system: Pseudomonas aeruginosa (ATCC 15442); settings: read-out: Minimum Inhibitory Concentration
Method: as §1

[5] = system: Candida albicans (ATCC 10231); settings: read-out: Minimum Inhibitory Concentration
Method: as §1

[6] = system: Burkholderia cepacia (ATCC 25416); settings: read-out: Minimum Inhibitory Concentration
Method: as §1

[7] = system: Staphylococcus aureus (ATCC 6538); settings: read-out: Minimum Inhibitory Concentration
Method: as §1

[8] = system: Pseudomonas putida (ATCC 49128); settings: read-out: Minimum Inhibitory Concentration
Method: as §1

[9] = system: Escherichia coli (ATCC 8739); settings: read-out: Minimum Inhibitory Concentration
Method: as §1

[10] = system: Staphylococcus epidermidis (ATCC 12228); settings: read-out: Minimum Inhibitory Concentration
Method: as §1

[11] = system: Klebsiella pneumoniae (ATCC 13883); settings: read-out: Minimum Inhibitory Concentration
Method: as §1

CCCCCCCCCCCC[N+](C)(C)C.[Cl-] [Comp. 11, Dodecyltrimethylammonium chloride]
MIC ([1]; ATCC9027, 24 h): 500 µg/mL | MIC ([2]; ATCC33028, 24 h): 500 µg/mL | MIC [3]: 1000 µg/mL | MIC ([4]; ATCC15442, 24 h): 500 µg/mL | MIC ([5]; ATCC10231, 24 h): 200 µg/mL | MIC ([6]; ATCC25416, 24 h): 1000 µg/mL | MIC ([7]; ATCC6538, 24 h): 200 µg/mL | MIC ([8]; ATCC49128, 24 h): 500 µg/mL | MIC ([9]; ATCC8739, 24 h): 200 µg/mL | MIC ([10]; ATCC12228, 24 h): 100 µg/mL | MIC ([11]; ATCC13883, 24 h): 500 µg/mL

CCCCCCCCCCCC(=O)N[C@@H](CCCNC(=N)N)C(=O)OCC [Comp. 13, Lauroyl arginine ethyl ester]
MIC ([1]; ATCC9027, P. aeruginosa ATCC 9027, 30° C., 24 hours): 50 µg/mL (≈ 130 µM) | MIC ([2]; ATCC33028, E. gergoviae ATCC 33028, 30° C., 24 hours): 100 µg/mL (≈ 260 µM) | MIC ([3]; A. brasiliensis ATCC 16404, 25° C., 7 days): 100 µg/mL (≈ 260 µM) | MIC ([4]; ATCC15442, P. aeruginosa ATCC 15442, 30° C., 24 hours): 50 µg/mL (≈ 130 µM) | MIC ([5]; ATCC10231, C. albicans ATCC 10231, 25° C., 24 hours): 100 µg/mL (≈ 260 µM) | MIC ([6]; ATCC25416, B. cepacia ATCC 25416, 30° C., 24 hours): 100 µg/mL (≈ 260 µM) | MIC ([7]; ATCC6538, S. aureus ATCC 6538, 30° C., 24 hours): 12.5 µg/mL (≈ 32.5 µM) | MIC ([8]; ATCC49128, P. putida ATCC 49128, 30° C., 24 hours): 25 µg/mL (≈ 65 µM) | MIC ([9]; ATCC8739, E. coli ATCC 8739, 30° C., 24 hours): 50 µg/mL (≈ 130 µM) | MIC ([10]; ATCC12228, S. epidermidis ATCC 12228, 30° C., 24 hours): 12.5 µg/mL (≈ 32.5 µM) | MIC ([11]; ATCC13883, K. pneumoniae ATCC 13883, 30° C., 24 hours): 50 µg/mL (≈ 130 µM)
